Values after ≈ are worked out from the molar mass of the structure shown.
Experiments:
Assay type in all cases: functional
Escherichia coli [1] = assay: Antibacterial activity against Escherichia coli MTCC 1573 after 24 hr by broth dilution method; conditions: MTCC 1573, 24 h
Escherichia coli [2] = assay: Antibacterial activity against Escherichia coli MTCC 1573 at 200 ug/ml after 18 hr by cup-plate method; conditions: MTCC 1573, 18 h, read-out: DIZ
Micrococcus luteus [3] = assay: Antibacterial activity against Micrococcus luteus MTCC 1538 at 1500 ug/ml after 18 hr by cup-plate method; conditions: MTCC 1538, 18 h, read-out: DIZ
Pseudomonas fluorescens [4] = assay: Antibacterial activity against Pseudomonas fluorescens MTCC 2421 at 1000 ug/ml after 18 hr by cup-plate method; conditions: MTCC 2421, 18 h, read-out: DIZ
Aspergillus niger [5] = assay: Antifungal activity against Aspergillus niger MTCC 2546 at 1500 ug/ml after 18 hr by cup-plate method; conditions: MTCC 2546, 18 h, read-out: DIZ
Penicillium chrysogenum [6] = assay: Antifungal activity against Penicillium chrysogenum MTCC 161 at 500 ug/ml after 18 hr by cup-plate method; conditions: MTCC 161, 18 h, read-out: DIZ
Pseudomonas aeruginosa [7] = assay: Antibacterial activity against Pseudomonas aeruginosa MTCC 424 at 500 ug/ml after 18 hr by cup-plate method; conditions: MTCC 424, 18 h, read-out: DIZ
Staphylococcus aureus [8] = assay: Antibacterial activity against Staphylococcus aureus MTCC 1430 after 24 hr by broth dilution method; conditions: MTCC 1430, 24 h
Penicillium chrysogenum [9] = assay: Antifungal activity against Penicillium chrysogenum MTCC 161 after 24 hr by broth dilution method; conditions: MTCC 161, 24 h
Escherichia coli [10] = assay: Antibacterial activity against Escherichia coli MTCC 1573 at 1000 ug/ml after 18 hr by cup-plate method; conditions: MTCC 1573, 18 h, read-out: DIZ
Aspergillus niger [11] = assay: Antifungal activity against Aspergillus niger MTCC 2546 after 24 hr by broth dilution method; conditions: MTCC 2546, 24 h
Bacillus pumilus [12] = assay: Antibacterial activity against Bacillus pumilus MTCC 1456 at 100 ug/ml after 18 hr by cup-plate method; conditions: MTCC 1456, 18 h, read-out: DIZ
Pseudomonas aeruginosa [13] = assay: Antibacterial activity against Pseudomonas aeruginosa MTCC 424 at 1500 ug/ml after 18 hr by cup-plate method; conditions: MTCC 424, 18 h, read-out: DIZ
Pseudomonas fluorescens [14] = assay: Antibacterial activity against Pseudomonas fluorescens MTCC 2421 at 1500 ug/ml after 18 hr by cup-plate method; conditions: MTCC 2421, 18 h, read-out: DIZ
Escherichia coli [15] = assay: Antibacterial activity against Escherichia coli MTCC 1573 at 500 ug/ml after 18 hr by cup-plate method; conditions: MTCC 1573, 18 h, read-out: DIZ
Micrococcus luteus [16] = assay: Antibacterial activity against Micrococcus luteus MTCC 1538 after 24 hr by broth dilution method; conditions: MTCC 1538, 24 h
Bacillus pumilus [17] = assay: Antibacterial activity against Bacillus pumilus MTCC 1456 at 1500 ug/ml after 18 hr by cup-plate method; conditions: MTCC 1456, 18 h, read-out: DIZ
Staphylococcus aureus [18] = assay: Antibacterial activity against Staphylococcus aureus MTCC 1430 at 1000 ug/ml after 18 hr by cup-plate method; conditions: MTCC 1430, 18 h, read-out: DIZ
Bacillus subtilis [19] = assay: Antibacterial activity against Bacillus subtilis MTCC 441 at 1500 ug/ml after 18 hr by cup plate method; conditions: MTCC 441, 18 h, read-out: DIZ
Pseudomonas fluorescens [20] = assay: Antibacterial activity against Pseudomonas fluorescens MTCC 2421 at 100 ug/ml after 18 hr by cup-plate method; conditions: MTCC 2421, 18 h, read-out: DIZ
Bacillus subtilis [21] = assay: Antibacterial activity against Bacillus subtilis MTCC 441 at 500 ug/ml after 18 hr by cup plate method; conditions: MTCC 441, 18 h, read-out: DIZ
Aspergillus niger [22] = assay: Antifungal activity against Aspergillus niger MTCC 2546 at 1000 ug/ml after 18 hr by cup-plate method; conditions: MTCC 2546, 18 h, read-out: DIZ
Pseudomonas aeruginosa [23] = assay: Antibacterial activity against Pseudomonas aeruginosa MTCC 424 at 1000 ug/ml after 18 hr by cup-plate method; conditions: MTCC 424, 18 h, read-out: DIZ
Bacillus subtilis [24] = assay: Antibacterial activity against Bacillus subtilis MTCC 441 after 24 hr by broth dilution method; conditions: MTCC 441, 24 h
Micrococcus luteus [25] = assay: Antibacterial activity against Micrococcus luteus MTCC 1538 at 1000 ug/ml after 18 hr by cup-plate method; conditions: MTCC 1538, 18 h, read-out: DIZ
Penicillium chrysogenum [26] = assay: Antifungal activity against Penicillium chrysogenum MTCC 161 at 200 ug/ml after 18 hr by cup-plate method; conditions: MTCC 161, 18 h, read-out: DIZ
Bacillus pumilus [27] = assay: Antibacterial activity against Bacillus pumilus MTCC 1456 at 200 ug/ml after 18 hr by cup-plate method; conditions: MTCC 1456, 18 h, read-out: DIZ

Question: Which MIC (Escherichia coli [1]) does the source give for C(=N/c1nc[nH]n1)/c1cccc2ccccc12 here?
Answer: Its MIC is 50 µg/mL (≈ 225 µM).

Question: And the zone of inhibition at 200 µg/mL (Escherichia coli [2])?
Answer: The zone of inhibition at 200 µg/mL was 18 mm.

Question: What about the zone of inhibition at 1500 µg/mL (Micrococcus luteus [3]) of the same compound?
Answer: Its zone of inhibition at 1500 µg/mL is 23 mm.

Question: What about the zone of inhibition at 1000 µg/mL (Pseudomonas fluorescens [4]) of the same compound?
Answer: Its zone of inhibition at 1000 µg/mL is 21 mm.

Question: And the zone of inhibition at 1500 µg/mL (Aspergillus niger [5])?
Answer: The zone of inhibition at 1500 µg/mL was 22 mm.

Question: What about the zone of inhibition at 500 µg/mL (Penicillium chrysogenum [6]) of the same compound?
Answer: The zone of inhibition at 500 µg/mL was 20 mm.

Question: What about the zone of inhibition at 500 µg/mL (Pseudomonas aeruginosa [7]) of the same compound?
Answer: The zone of inhibition at 500 µg/mL was 20 mm.

Question: What about the MIC (Staphylococcus aureus [8]) of the same compound?
Answer: The MIC was 400 µg/mL (≈ 1800 µM).

Question: What about the MIC (Penicillium chrysogenum [9]) of the same compound?
Answer: Its MIC is 50 µg/mL (≈ 225 µM).

Question: And the zone of inhibition at 1000 µg/mL (Escherichia coli [10])?
Answer: Its zone of inhibition at 1000 µg/mL is 23 mm.

Question: And the MIC (Aspergillus niger [11])?
Answer: The MIC was 50 µg/mL (≈ 225 µM).

Question: What about the zone of inhibition at 100 µg/mL (Bacillus pumilus [12]) of the same compound?
Answer: Its zone of inhibition at 100 µg/mL is 13 mm.

Question: And the zone of inhibition at 1500 µg/mL (Pseudomonas aeruginosa [13])?
Answer: The zone of inhibition at 1500 µg/mL was 24 mm.

Question: What about the zone of inhibition at 1500 µg/mL (Pseudomonas fluorescens [14]) of the same compound?
Answer: Its zone of inhibition at 1500 µg/mL is 23 mm.

Question: And the zone of inhibition at 500 µg/mL (Escherichia coli [15])?
Answer: Its zone of inhibition at 500 µg/mL is 19 mm.

Question: And the MIC (Micrococcus luteus [16])?
Answer: The MIC was 300 µg/mL (≈ 1350 µM).

Question: What about the zone of inhibition at 1500 µg/mL (Bacillus pumilus [17]) of the same compound?
Answer: Its zone of inhibition at 1500 µg/mL is 20 mm.

Question: What about the zone of inhibition at 1000 µg/mL (Staphylococcus aureus [18]) of the same compound?
Answer: Its zone of inhibition at 1000 µg/mL is 16 mm.

Question: And the zone of inhibition at 1500 µg/mL (Bacillus subtilis [19])?
Answer: The zone of inhibition at 1500 µg/mL was 21 mm.

Question: What about the zone of inhibition at 100 µg/mL (Pseudomonas fluorescens [20]) of the same compound?
Answer: The zone of inhibition at 100 µg/mL was 14 mm.

Question: And the zone of inhibition at 500 µg/mL (Bacillus subtilis [21])?
Answer: Its zone of inhibition at 500 µg/mL is 18 mm.

Question: What about the zone of inhibition at 1000 µg/mL (Aspergillus niger [22]) of the same compound?
Answer: Its zone of inhibition at 1000 µg/mL is 21 mm.

Question: And the zone of inhibition at 1000 µg/mL (Pseudomonas aeruginosa [23])?
Answer: The zone of inhibition at 1000 µg/mL was 22 mm.

Question: What about the MIC (Bacillus subtilis [24]) of the same compound?
Answer: The MIC was 300 µg/mL (≈ 1350 µM).

Question: What about the zone of inhibition at 1000 µg/mL (Micrococcus luteus [25]) of the same compound?
Answer: The zone of inhibition at 1000 µg/mL was 20 mm.

Question: What about the zone of inhibition at 200 µg/mL (Penicillium chrysogenum [26]) of the same compound?
Answer: The zone of inhibition at 200 µg/mL was 18 mm.

Question: What about the zone of inhibition at 200 µg/mL (Bacillus pumilus [27]) of the same compound?
Answer: Its zone of inhibition at 200 µg/mL is 16 mm.

From ChEMBL document CHEMBL3045835, “Comparative study of conventional and microwave-assisted synthesis of some Schiff bases and their potential as antimicrobial agents” (2012)
